Test [1] deals with T1, human progesterone receptor A (Homo sapiens, UniProt P06401).
T1 construct: expressed in transfected cells; host or cells: SK-N-MC human neuroblastoma cells, stably transfected with pRChPR-A-neo and pMMTV-LUC
T1 sequence (P06401 1-769 isoform P06401-2): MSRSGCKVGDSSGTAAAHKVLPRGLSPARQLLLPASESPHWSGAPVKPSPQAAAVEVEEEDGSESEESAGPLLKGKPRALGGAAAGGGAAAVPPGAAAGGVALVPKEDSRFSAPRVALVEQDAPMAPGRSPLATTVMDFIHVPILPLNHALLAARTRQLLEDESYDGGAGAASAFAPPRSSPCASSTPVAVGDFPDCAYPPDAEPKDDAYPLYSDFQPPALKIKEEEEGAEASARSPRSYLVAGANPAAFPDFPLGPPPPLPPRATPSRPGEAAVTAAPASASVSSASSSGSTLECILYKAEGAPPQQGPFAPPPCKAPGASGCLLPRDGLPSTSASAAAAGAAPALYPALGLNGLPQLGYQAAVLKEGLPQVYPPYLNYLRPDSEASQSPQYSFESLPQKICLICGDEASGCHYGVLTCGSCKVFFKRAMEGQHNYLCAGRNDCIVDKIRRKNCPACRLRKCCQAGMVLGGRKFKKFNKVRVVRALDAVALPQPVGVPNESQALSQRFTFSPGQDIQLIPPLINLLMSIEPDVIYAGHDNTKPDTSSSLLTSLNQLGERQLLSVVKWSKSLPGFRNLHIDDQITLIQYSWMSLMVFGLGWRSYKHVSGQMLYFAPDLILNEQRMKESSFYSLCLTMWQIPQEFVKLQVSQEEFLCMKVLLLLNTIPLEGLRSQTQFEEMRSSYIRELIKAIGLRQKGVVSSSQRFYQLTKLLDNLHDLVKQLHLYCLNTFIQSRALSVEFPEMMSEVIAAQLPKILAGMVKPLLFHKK
Kind of test: Progesterone receptor antagonistic effect in stably transfected SK-N-MC cells, MTV-LUC reporter (PR-A). It is filed as cell-based. The conditions noted are these: antagonism of 0.1 nmol/l promegestone, luciferase reporter, 24 hours. The protocol: (§1) Progesterone Receptor Antagonistic Effect in Stable Transfectants of Human Neuroblastoma Cells (SK-N-MC cells) with the Human Progesterone A or Progesterone B Receptor and a MTV-LUC Reporter Construct
(§2) SK-N-MC cells (human neuroblastoma cells), which have been stably transfected with plasmids which express the human progesterone receptor B (pRChPR-B-neo) or the human progesterone receptor A (pRChPR-A-neo) and a reporter construct (pMMTV-LUC), were incubated for 24 hours either in the absence (negative control) or in the presence of increasing amounts of the particular test compound (0.01 nmol/l, 0.1 nmol/l, 1 nmol/l, 10 nmol/l, 100 nmol/l and 1 μmol/l) in order to determine the agonistic efficacy. As a positive control of the reporter gene induction, the cells were treated with the synthetic gestagen promegestone (0.01 nmol/l, 0.1 nmol/l, 1 nmol/l, 10 nmol/l, 100 nmol/l and 1 μmol/l). To determine the antagonistic activity, the cells were treated with 0.1 nmol/l of promegestone and additionally with increasing amounts of the particular test compound (0.01 nmol/l, 0.1 nmol/l, 1 nmol/l, 10 nmol/l, 100 nmol/l and 1 μmol/l). The activity of the reporter gene LUC (LUC=luciferase) was determined in the cell lysates and measured as RLU (relative light units). All measurement values are given as percentage efficacy and as EC50 or IC50 concentrations.

Test [2] deals with T2, human progesterone receptor B (Homo sapiens, UniProt P06401).
T2 construct: expressed in transfected cells; host or cells: SK-N-MC human neuroblastoma cells, stably transfected with pRChPR-B-neo and pMMTV-LUC
T2 sequence (P06401 1-933): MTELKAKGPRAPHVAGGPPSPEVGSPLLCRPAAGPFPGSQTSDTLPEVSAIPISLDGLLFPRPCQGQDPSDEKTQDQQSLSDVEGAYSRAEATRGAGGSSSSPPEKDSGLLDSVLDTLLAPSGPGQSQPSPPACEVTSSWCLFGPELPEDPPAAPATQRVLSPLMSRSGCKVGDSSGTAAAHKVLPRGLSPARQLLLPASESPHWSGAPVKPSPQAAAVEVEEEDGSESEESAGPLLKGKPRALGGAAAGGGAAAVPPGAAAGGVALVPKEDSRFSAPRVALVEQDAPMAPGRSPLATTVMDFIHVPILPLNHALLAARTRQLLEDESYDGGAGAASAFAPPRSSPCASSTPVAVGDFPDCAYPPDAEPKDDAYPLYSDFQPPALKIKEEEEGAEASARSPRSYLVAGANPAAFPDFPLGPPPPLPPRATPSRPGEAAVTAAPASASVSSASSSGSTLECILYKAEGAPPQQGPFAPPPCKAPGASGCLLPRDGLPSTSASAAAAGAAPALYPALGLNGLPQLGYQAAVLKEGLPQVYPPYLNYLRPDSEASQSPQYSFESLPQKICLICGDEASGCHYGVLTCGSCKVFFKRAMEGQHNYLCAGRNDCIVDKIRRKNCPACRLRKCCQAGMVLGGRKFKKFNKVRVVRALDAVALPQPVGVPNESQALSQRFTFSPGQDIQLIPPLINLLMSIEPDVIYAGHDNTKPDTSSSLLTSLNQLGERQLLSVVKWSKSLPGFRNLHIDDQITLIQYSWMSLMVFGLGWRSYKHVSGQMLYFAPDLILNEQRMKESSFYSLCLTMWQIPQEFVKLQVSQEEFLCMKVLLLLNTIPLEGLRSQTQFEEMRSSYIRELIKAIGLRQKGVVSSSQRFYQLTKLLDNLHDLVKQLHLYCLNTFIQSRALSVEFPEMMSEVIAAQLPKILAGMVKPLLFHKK
The experiment in a line: Progesterone receptor antagonistic effect in stably transfected SK-N-MC cells, MTV-LUC reporter (PR-B). It is filed as cell-based. The conditions noted are these: antagonism of 0.1 nmol/l promegestone, luciferase reporter, 24 hours. The protocol: as §1, §2

Turning to `C[C@]12C[C@H](c3ccc(CN4CCS(=O)(=O)CC4)cc3)C3=C4CCC(=O)C=C4CCC3C1CC[C@@]2(O)C(F)(F)C(F)(F)F` (stereo partly drawn) [Example 8, (11β,17β)-11-{4-[(1,1-Dioxidothiomorpholin-4-yl)methyl]phenyl}-17-hydroxy-17-(pentafluoroethyl)estra-4,9-dien-3-one], the IC50 in test [1] was 100 pM; in test [2], 300 pM.
The corresponding values for `CC(=O)N1CCCN(Cc2ccc([C@H]3C[C@@]4(C)C(CC[C@@]4(O)C(F)(F)C(F)(F)F)C4CCC5=CC(=O)CCC5=C43)cc2)CC1` (stereo partly drawn) [Example 17, (11β,17β)-11-{4-[(4-Acetyl-1,4-diazepan-1-yl)methyl]phenyl}-17-hydroxy-17-(pentafluoroethyl)estra-4,9-dien-3-one] are 560 pM and 570 pM.
Compound `CN1CCN(Cc2ccc([C@H]3C[C@@]4(C)[C@@H](CC[C@@]4(O)C(F)(F)C(F)(F)F)[C@@H]4CCC5=CC(=O)CCC5=C43)cc2)CC1` [Example 2, (11β,17β)-17-Hydroxy-11-{4-[(4-methylpiperazin-1-yl)methyl]phenyl}-17-(pentafluoroethyl)estra-4,9-dien-3-one] came in with a half-maximal inhibitory concentration (IC50) in test [2] of 2800 pM.
In the case of `CC(C)(C)OC(=O)N1CCCN(Cc2ccc([C@H]3C[C@@]4(C)[C@@H](CC[C@@]4(O)C(F)(F)C(F)(F)F)[C@@H]4CCC5=CC(=O)CCC5=C43)cc2)CC1` [Example 6, tert-Butyl 4-{4-[(11β,17β)-17-hydroxy-3-oxo-17-(pentafluoroethyl)estra-4,9-dien-11-yl]benzyl}-1,4-diazepane-1-carboxylate], the IC50 in test [1] was found to be 330 pM; in test [2], 300 pM.
The corresponding values for `C[C@]12C[C@H](c3ccc(CN4CCCCC4)cc3)C3=C4CCC(=O)C=C4CC[C@H]3[C@@H]1CC[C@@]2(O)C(F)(F)C(F)(F)F` [Example 4, (11β,17β)-17-Hydroxy-17-(pentafluoroethyl)-11-[4-(piperidin-1-ylmethyl)phenyl]estra-4,9-dien-3-one] are 1400 pM and 2100 pM.
As for `C[C@]12C[C@H](c3ccc(CN4CCNCC4)cc3)C3=C4CCC(=O)C=C4CC[C@H]3[C@@H]1CC[C@@]2(O)C(F)(F)C(F)(F)F` [Example 10, (11β,17β)-17-Hydroxy-17-(pentafluoroethyl)-11-[4-(piperazin-1-yl-methyl)phenyl]estra-4,9-dien-3-one], the figures for the 50% inhibitory concentration (IC50) in test [1] and in test [2] were 880 pM and 120 pM, respectively.
The corresponding values for `C[C@]12C[C@H](c3ccc(CN4CCOCC4)cc3)C3=C4CCC(=O)C=C4CC[C@H]3[C@@H]1CC[C@@]2(O)C(F)(F)C(F)(F)F` [Example 7, (11β,17β)-17-Hydroxy-11-[4-(morpholin-4-ylmethyl)phenyl]-17-(pentafluoroethyl)estra-4,9-dien-3-one] are 100 pM and 100 pM.
The like results for `C[C@]12C[C@H](c3ccc(CN4CCN(C(=O)c5ccccc5)CC4)cc3)C3=C4CCC(=O)C=C4CCC3C1CC[C@@]2(O)C(F)(F)C(F)(F)F` (stereo partly drawn) [Example 13, (11β,17β)-11-{4-[(4-Benzoylpiperazin-1-yl)methyl]phenyl}-17-hydroxy-17-(Pentafluoroethyl)estra-4,9-dien-3-one] were, in that order, 92 pM and 100 pM.
As to `COC(=O)C1CCN(Cc2ccc([C@H]3C[C@@]4(C)[C@@H](CC[C@@]4(O)C(F)(F)C(F)(F)F)[C@@H]4CCC5=CC(=O)CCC5=C43)cc2)CC1` [Example 5, Methyl 1-{4-[(11β,17β)-17-hydroxy-3-oxo-17-(pentafluoroethyl)estra-4,9-dien-11-yl]benzyl}piperidine-4-carboxylate], the IC50 in test [1] turned out to be 1200 pM; in test [2], 990 pM.
The corresponding values for `C[C@]12C[C@H](c3ccc(CN4CCCNCC4)cc3)C3=C4CCC(=O)C=C4CCC3C1CC[C@@]2(O)C(F)(F)C(F)(F)F` (stereo partly drawn) [Example 16, (11β,17β)-11-[4-(1,4-Diazepan-1-ylmethyl)phenyl]-17-hydroxy-17-(pentafluoroethyl)estra-4,9-dien-3-one] are 2700 pM and 2800 pM.
`CC(C)(C)C(=O)N1CCN(Cc2ccc([C@H]3C[C@@]4(C)C(CC[C@@]4(O)C(F)(F)C(F)(F)F)C4CCC5=CC(=O)CCC5=C43)cc2)CC1` (stereo partly drawn) [Example 14, (11β,17β)-11-(4-{[4-(2,2-Dimethylpropanoyl)piperazin-1-yl]methyl}phenyl)-17-hydroxy-17-(pentafluoroethyl)estra-4,9-dien-3-one]: the IC50 in test [1] was found to be 100 pM; in test [2], 94 pM.
Consider `C[C@]12C[C@H](c3ccc(CN4CCC(C(=O)O)CC4)cc3)C3=C4CCC(=O)C=C4CC[C@H]3[C@@H]1CC[C@@]2(O)C(F)(F)C(F)(F)F` [Example 15, 1-{4-[(11β,17β)-17-hydroxy-3-oxo-17-(pentafluoroethyl)estra-4,9-dien-11-yl]benzyl}piperidine-4-carboxylic acid], for which the figures for the 50% inhibitory concentration (IC50) in test [1] and in test [2] were 53000 pM and 60000 pM, respectively.
The like results for `CN(C)Cc1ccc([C@H]2C[C@@]3(C)C(CC[C@@]3(O)C(F)(F)C(F)(F)F)C3CCC4=CC(=O)CCC4=C32)cc1` (stereo partly drawn) [Example 1, (11β,17β)-11-{4-[(Dimethylamino)methyl]phenyl}-17-hydroxy-17-(pentafluoroethyl)estra-4,9-dien-3-one] were, in that order, 7500 pM and 8200 pM.
The corresponding values for `C[C@]12C[C@H](c3ccc(CNCCc4ccccc4)cc3)C3=C4CCC(=O)C=C4CC[C@H]3[C@@H]1CC[C@@]2(O)C(F)(F)C(F)(F)F` [Example 9, (11β,17β)-17-Hydroxy-17-(pentafluoroethyl)-11-(4-{[(2-phenylethyl)amino]methyl}phenyl)estra-4,9-dien-3-one] are 1300 pM and 980 pM.
The like results for `CC(C)(C)OC(=O)N1CCN(Cc2ccc([C@H]3C[C@@]4(C)[C@@H](CC[C@@]4(O)C(F)(F)C(F)(F)F)[C@@H]4CCC5=CC(=O)CCC5=C43)cc2)CC1` [Example 3, tert-Butyl 4-{4-[(11β,17β)-17-hydroxy-3-oxo-17-(pentafluoroethyl)estra-4,9-dien-11-yl]benzyl}piperazine-1-carboxylate] were, in that order, 110 pM and 150 pM.

Source of the values: patent publication US9085603B2, “Progesterone receptor antagonists” (Bayer Intellectual Property GmbH, priority 2010, dated 2015).
